Experimental findings from patent publication US12545677B2, “Compounds useful as factor XIa inhibitors” (JANSSEN PHARMACEUTICA NV, priority 2020, dated 2026) are described below.

For one data set, the target named is Factor XIa (Homo sapiens, UniProt P03951). Put plainly: Factor XIa inhibition assay using fluorophore-quencher pair peptide substrate. The data set is classed as biochemical. The text has this: Biological Example 1: Factor XIa Inhibition Assay
Using Fluorophore-quencher Pair Peptide Substrate
A fluorescence intensity-based assay was used to monitor inhibition of Factor XIa. The peptide substrate, 5Fam-[…]-K5Tamra (purchased from New England Peptide) was chosen based on the […]. Conversion of zymogen FIX to its activated form, FIXa, occurs by proteolytic cleavage by FXIa at two sites, Arg146 and Arg180. The custom peptide used in this assay was based on the Arg146 cleavage site. The peptide substrate was designed with a fluorophore-quencher pair, where the fluorescence is quenched until FXIa cleaves the 8-mer peptide after the Arg residue.
Factor XIa FLINT assay was used with the following 5Fam-[…]-K5Tamra assay buffer: 50 mM Tris, pH 7.5, 100 mM NaCl, 5 mM CaCl2, 0.1 mg/mL BSA, 0.03% CHAPS was used. Assay buffer was prepared by mixing all ingredients fresh. 2×5Fam-[…]-K5Tamra peptide substrate was first prepared in 100% DMSO, then diluted 10 mM to 3 mM in 100% DMSO. Assay buffer was then added directly to the 3 mM stock of substrate to prepare the 30 μM 2× working concentration (15 μM final concentration). The 2× Factor XIa stock solution was prepared by diluting 6.562 μM stock in 1× assay buffer for a 200 pM working stock solution (100 pM final concentration).
Test compound(s) were run in an 11-point, 3-fold serial dilution with a final top compound concentration of […]. Final DMSO in assay was 2% DMSO. FXIa and compound were pre-incubated for 30 minutes and substrate was then added to initiate the reaction. The assay was linear using 100 pM FXIa greater than 30 minutes. More specifically, the assay was run as follows: • 100 nL of 1 mM test compound was dispensed into a black 384-well non-binding Greiner BioOne 784900 plate for 10 μM final concentration with 1% DMSO final concentration; • 5 μL of 1× assay buffer was dispensed to column 24 (low control) and 5 μL 2× Factor XIa solution was dispensed to columns 1-23 (column 23 high control); • the plate was centrifuged with a “cover” plate at 500 rpm for 1 min • the plate was pre-incubated for 30 minutes at room temperature with plate covered; • 5 μL of 2× 5Fam-[…]-K5Tamra peptide substrate was dispensed into the entire plate, columns 1-24; • the plate was centrifuged with a cover plate at 500 rpm for 1 min; • the plate was read kinetically monitoring fluorescence intensity on the BMG PHERAStar at room temperature, using fluorescence module F1 485 mm/520 mm.
(§1) Percent inhibition (IC50) curves were generated per compound tested, and data was analyzed using a 4-parameter logistic fit using GeneData Screener. […]

Another data set relates to human hepatocytes. Briefly: In vitro metabolism in human cryopreserved hepatocytes. The data set is classed as in vitro ADME. To be noted: positive control, 10 μM, 1×10^6 cells/mL, 3 hours. The procedure:
In Vitro Metabolism of in Human Cryopreserved Hepatocytes
The human hepatocytes used for in vitro metabolism of the compound of formula (I-A) were purchased from Bioreclamation IVT (Westbury, NY); cryopreserved human hepatocytes (lot number: UYG).
Cryopreserved hepatocytes were rapidly thawed […] vials were placed in a 37° C. water bath for approximately 90 sec, then immediately added to pre-warmed hepatocyte thawing media. The cells were resuspended within the media and then centrifuged at 700×g for 7 minutes at room temperature.
The supernatant was discarded, and the cells were resuspended in 2 mL of Krebs-Henseleit buffer containing 12.5 mM HEPES pH 7.4 (KHB). Cell viability and yield were determined by Trypan Blue exclusion. The hepatocytes were then diluted in KHB to a cell concentration of 2×10^6 cells/mL (500 μL/well in 10 mL glass tubes). The tubes were placed on a rotary shaker in a humidifier incubator supplied with 5% CO2 and allowed 15 minutes acclimation at 37° C. prior to use. The compound of formula (I-A) or positive control, diclofenac (10 μM), in KHB was then added to the hepatocytes to achieve a final concentration of 10 μM and cell concentration of 1×10^6 cells/mL (1000 μL final incubation volume). Cells were incubated for zero or 3 hours. At the end of the incubation period, the cells were quenched with 6-volumes of ice-cold acetonitrile containing 0.02% formic acid, vortexed and sonicated (5 min). Precipitated proteins were pelleted by centrifugation (3000 rpm, 10 minutes, 4° C.) and the supernatant was transferred to borosilicate tubes and evaporated to dryness under a gentle stream of nitrogen.
The resulting residue after evaporation was reconstituted in 250 μL of water:acetonitrile (9:1 v/v) containing 0.01% formic acid with sonication and vortexing to aid solubilization of drug-derived materials prior to filtration using 0.45μ nylon filter at 10,000×g at room temperature for 10 minutes. The filtrate was transferred to a 96-well plate for liquid chromatography/ultraviolet/mass spectrometry (LC-UV/MS) analysis.
LC/UV/MS (Liquid Chromatography/Ultraviolet/Mass Spectrometry)
LTQ/Orbitrap (Thermo Scientific, Inc., Bremen, Germany) was carried out by data-dependent accurate mass measurements at resolving powers of 15,000 for full scan MS and 7,500 for MS^2 (also known as MS/MS or tandem mass spec) under single ion locked mass mode.
Quantification of the unchanged drug and its metabolites was carried out by integration of the individual chromatographically separated UV peaks and provided the percentage of total peak area.

Another data set deals with human plasma kallikrein (Homo sapiens, UniProt P03952). Briefly: Kallikrein inhibition assay utilizing quenched AMC peptide substrate. The data set is classed as biochemical. To be noted: read-out: Plasma kallikrein (PK) IC50. The procedure: Biological Example 2: Kallikrein Inhibition Assay
Utilizing Quenched AMC Peptide Substrate
A fluorescence intensity-based assay was used to monitor inhibition of human plasma kallikrein. The peptide substrate, Z-Gly-Pro-Arg-AMC (Purchased from Bachem; Catalog #1-1150) was chosen based on its relatively low KM for kallikrein which enables running the assay at lower substrate concentrations to control background fluorescence. The kinetic parameters for this substrate were determined by fitting titration data to the Michaelis-Menten equation yielding a KM=40 μM, kcat=0.76 s^−1, and kcat/KM=18932 M^−1s^−1.
Kallikrein FLINT assay was used with the following Z-Gly-Pro-Arg-AMC assay buffer: 50 mM Tris, pH 7.5, 100 mM NaCl, 5 mM CaCl2, 0.1 mg/mL BSA, 0.03% CHAPS. Assay buffer was prepared by mixing all ingredients fresh. 2× Z-Gly-Pro-Arg-AMC peptide substrate was prepared by diluting 10 mM stock into 1× assay buffer for a 100 μM working concentration (50 μM final concentration). The 2× kallikrein stock solution was prepared by diluting 14.76 μM stock in 1× assay buffer for a 4 nM working stock solution (2 nM final concentration).
Test compound(s) were run in an 11-point, 3-fold serial dilution with a final top compound concentration of 1 μM. Final DMSO in assay: 2% DMSO. 2 nM kallikrein and test compound were pre-incubated for 30 minutes and 50 μM substrate was then added to initiate the reaction. The assay was linear using 2 nM kallikrein greater than 30 minutes. More specifically, the assay was run as follows: • 100 nL of 1 mM test compound was dispensed into a black 384-well non-binding Greiner BioOne 784900 plate for 10 μM final concentration with 1% DMSO final concentration; • 5 μL of 1× assay buffer was dispensed to columns 24 (low control) and 5 μL 2× human kallikrein enzyme solution was dispensed to columns 1-23 (column 23 high control); • the plate was centrifuged with a cover plate at 500 rpm for 1 min • the plate was pre-incubated for 30 minutes at room temperature with plate covered; • 5 μL of 2× Z-Gly-Pro-Arg-AMC peptide substrate was dispensed into the entire plate, columns 1-24; • the plate was centrifuged with a “cover” plate at 500 rpm for 1 min; • the plate was read kinetically monitoring fluorescence intensity on the BMG PHERAStar at room temperature, using fluorescence module F1 340 mm/440 mm.
as §1

Factor XIa, sequence (P03951 388-625 limits assumed): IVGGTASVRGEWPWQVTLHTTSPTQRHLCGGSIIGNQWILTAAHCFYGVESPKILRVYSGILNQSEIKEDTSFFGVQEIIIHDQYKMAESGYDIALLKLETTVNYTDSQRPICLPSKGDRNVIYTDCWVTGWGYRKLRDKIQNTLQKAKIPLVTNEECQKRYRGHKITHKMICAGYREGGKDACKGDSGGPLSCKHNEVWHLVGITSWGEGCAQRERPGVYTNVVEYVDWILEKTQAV
Factor XIa, sequence (P03951 19-387 partner limits assumed): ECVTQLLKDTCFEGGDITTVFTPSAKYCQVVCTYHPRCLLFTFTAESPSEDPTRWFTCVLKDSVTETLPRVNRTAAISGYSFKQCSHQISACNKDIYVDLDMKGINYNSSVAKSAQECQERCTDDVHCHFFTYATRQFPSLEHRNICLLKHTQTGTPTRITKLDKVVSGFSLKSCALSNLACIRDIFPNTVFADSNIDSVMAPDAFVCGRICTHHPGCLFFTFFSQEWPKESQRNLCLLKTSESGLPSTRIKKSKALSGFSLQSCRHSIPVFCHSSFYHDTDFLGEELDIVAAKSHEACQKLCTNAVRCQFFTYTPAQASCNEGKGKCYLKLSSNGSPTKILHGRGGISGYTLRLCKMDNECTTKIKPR
human plasma kallikrein, sequence (P03952 391-638 limits assumed): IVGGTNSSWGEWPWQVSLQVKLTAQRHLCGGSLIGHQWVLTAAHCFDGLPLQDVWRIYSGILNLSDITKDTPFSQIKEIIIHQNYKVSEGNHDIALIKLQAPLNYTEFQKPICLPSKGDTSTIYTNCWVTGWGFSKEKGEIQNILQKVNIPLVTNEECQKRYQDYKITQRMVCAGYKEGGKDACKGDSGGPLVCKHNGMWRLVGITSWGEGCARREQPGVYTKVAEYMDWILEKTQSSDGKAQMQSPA
human plasma kallikrein, sequence (P03952 20-390 partner limits assumed): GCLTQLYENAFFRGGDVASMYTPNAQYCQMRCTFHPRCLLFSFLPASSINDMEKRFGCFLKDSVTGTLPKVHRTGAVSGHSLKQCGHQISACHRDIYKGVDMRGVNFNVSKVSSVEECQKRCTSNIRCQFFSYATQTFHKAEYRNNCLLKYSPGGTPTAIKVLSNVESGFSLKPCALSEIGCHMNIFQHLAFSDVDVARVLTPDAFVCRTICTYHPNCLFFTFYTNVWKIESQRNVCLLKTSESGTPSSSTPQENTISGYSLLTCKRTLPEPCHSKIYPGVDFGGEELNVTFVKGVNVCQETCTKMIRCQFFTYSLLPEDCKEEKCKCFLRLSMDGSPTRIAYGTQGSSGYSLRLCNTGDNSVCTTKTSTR

What is called IC50 is the concentration that inhibits the measured activity by half. Take `[2H]C1([2H])C[C@@H](c2ncc(-c3ccnc(CO)c3F)[nH]2)N2C(=O)C=C(c3c(-n4cnnn4)ccc(Cl)c3F)C([2H])([2H])[C@]21[2H]` (single isomer, unassigned) [Compound of formula (I-G)]: the concentration for half-maximal inhibition (IC50) against Factor XIa was determined as 3.9 nM.
For the compound `O=C(O)Cc1ccccc1Nc1c(Cl)cccc1Cl` [diclofenac, reference compound], in the data set with human hepatocytes, the “turnover from human hepatocytes” value was 89%.
`[2H]C1([2H])C(c2c(-n3cnnn3)ccc(Cl)c2F)=CC(=O)N2[C@H](c3ncc(-c4ccnc(CO)c4F)[nH]3)CC[C@@]21[2H]` (single isomer, unassigned) [Compound of formula (I-K)]: on human plasma kallikrein, the IC50 came out at 9.7 nM.
Consider `[2H]C([2H])(O)c1nccc(-c2cnc([C@@H]3CCC4([2H])CC(c5c(-n6cnnn6)ccc(Cl)c5F)=CC(=O)N34)[nH]2)c1F` (single isomer, unassigned) [Compound of formula (I-F), (3S,8aR*)-7-(3-Chloro-2-fluoro-6-(1H-tetrazol-1-yl)phenyl)-3-(5-(3-fluoro-2-(hydroxymethyl-d2)pyridin-4-yl)-1H-imidazol-2-yl)-2,3,8,8a-tetrahydroindolizin-5(1H)-one-8a-d], for which the IC50 on Factor XIa was 5.1 nM; on human plasma kallikrein, 34 nM.
The like results for `[2H]c1nnnn1-c1ccc(Cl)c(F)c1C1=CC(=O)N2[C@@H](CC[C@@H]2c2ncc(-c3ccnc(C([2H])([2H])O)c3F)[nH]2)C1` (stereo in doubt) [Compound of formula (I-J), (3R,8aS)-7-(3-Chloro-2-fluoro-6-(1H-tetrazol-1-yl-d)phenyl)-3-(4-(3-fluoro-2-(hydroxymethyl-d2)pyridin-4-yl)-1H-imidazol-2-yl)-2,3,8,8a-tetrahydroindolizin-5(1H)-one] were, in that order, 4.1 nM and 32 nM.
